Reference: patent publication US8247170B2, “Detection of penicillin tolerance in Group B Streptococcus: single nucleotide polymorphisms in penicillin binding protein 4” (priority 2008, dated 2012)

Test system: GBS laboratory strains
Experiment: MBC90:MIC90 ratio method of determining antibiotic tolerance
Format: cell-based, Group B Streptococcus
Conditions: for Phenotype: by MBC:MIC ratio; for MBC: 24 h, ≧90% non-viable cells, plate counts after 24 h antibiotic; for MIC: ≧90% growth-inhibited, OD600
Method: The inventors ascertained the incidence of antibiotic tolerance in GBS clinical isolates collected from cervicovaginal-rectal swabs, by investigating cell wall inhibitors used to eliminate GBS colonization in pregnant women before delivery as stated by the CDC guidelines. A ratio of the minimum bactericidal concentration (MBC) over minimum inhibitory concentration (MIC) after 24 h of antibiotic incubation or by determining quantitative kill curves has been used to define antibiotic tolerance previously.
The MBC:MIC ratio was calculated for laboratory strains using three β-lactam antibiotics (Penicillin G, Ampicillin, and Cefazolin) and a glycopeptide antibiotic (Vancomycin) (Table 1). Early-log phase cultures of GBS were treated with the individual antibiotics at a concentration of 0.25 to 512×MIC90. The optical density (OD600) of antibiotic treated cultures was used to determine the MIC90 after 24 h and a cell count was used to determine their MBC90. Susceptible, tolerant and intermediate strains were defined by their MBC:MIC ratio of ≦2:1, ≧32:1 and 4:1-16:1 respectively. […] The ratios characterized GBS strains A909 and 2603V/R as Susceptible, O90R as Tolerant, and NEM316 as Intermediate to Penicillin, Ampicillin, and Cefazolin. All four strains were susceptible to Vancomycin.
(I) Bacterial Strains and Culture Conditions. GBS strains A909 (serotype IA), 515 (serotype IA), NEM316 (serotype III), COHI (serotype III), 2603V/R (serotype V) and O90R (non-typable) were used in this study. E. coli Top10 cells were used for the recombination experiments. GBS was cultured in Todd Hewitt broth (THB) or Tryptic Soy 5% sheep blood (TS) media and E. coli in Luria-broth (LB) medium or agar. Antibiotics were used at the following concentrations: for GBS—penicillin G (MIC90 0.06 μg ml^−1), ampicillin (MIC90 0.12 μg ml^−1), vancomycin (MIC90 2 μg ml^−1), cefazolin (MIC90 1 μg ml^−1) and chloramphenicol (5 μg ml^−1); for E. coli—ampicillin (50 μg ml^−1) and chloramphenicol (5 μg ml^−1). Both GBS and E. coli cultures were grown at 37° C. (II) Tolerance Using the MBC:MIC Ratio Method. Three GBS laboratory strains (i.e., A909, NEM316, and O90R) were cultured overnight for 18 h at 37° C. in THB. Subcultures in THB were subsequently grown to exponential phase (OD600˜0.3; i.e. 5×10^5 cfu/ml) at 37° C. Cell cultures were then exposed to different concentrations of antibiotics (Penicillin G, Ampicillin, Cefozolin or Vancomycin). […] Cell cultures were dispersed every 18 h before OD600 was measured to determine the lowest concentration of antibiotic with 90% growth inhibition (MIC90). Antibiotic treated cells (8 μl) from each well were re-suspended into PBS (100 μl) and plated (54 μl) on TS agar plates and allowed to grow for an additional 24 h at 37° C. Cell count was performed to determine the lowest concentration of antibiotic with 90% killing of original inoculums (MBC90). (III) Penicillin Killing and Regrowth Tolerance Assay by Microbroth Dilution. Three GBS laboratory strains (i.e., A909, NEM316, and O90R) were cultured overnight for 18 h at 37° C. in THB. Subcultures in THB were subsequently grown to exponential phase (OD600˜0.3) at 37° C. Cell cultures were then exposed to different concentrations of Penicillin G (Sigma, St. Louis, Mo.). […] Cell cultures were dispersed. A 1:20 dilution of cells was re-plated into new wells containing fresh THB with 500 U Penase (to degrade residual penicillin). Cell cultures were allowed to re-grow for an additional 24 h at 37° C. before the OD600 was measured. (IV) Measuring Cell Viability by Determining ATP Concentration. GBS strains were cultured for 18 h at 37° C. in THB. These cells were inoculated into fresh THB and subsequently allowed to grow to exponential phase (OD600 0.25-0.3) at 37° C. One ml of each culture was centrifuged at 5,000×g for 4 min. The cell pellet was re-suspended in ATP-free water. […]

[1] = Streptococcus, GBS strain 2603V/R
[2] = Streptococcus, GBS strain NEM316

## CC1(C)S[C@@H]2[C@H](NC(=O)Cc3ccccc3)C(=O)N2[C@H]1C(=O)O [Penicillin G]
GBS strain 2603V/R
  Ratio (MBC90:MIC90): 1
  Phenotype: S (MBC:MIC ratio of ≦2:1)
GBS strain 2603V/R, listed as Penicillin
  Phenotype: Susceptible
GBS strain A909
  Ratio (MBC90:MIC90): 1
  Phenotype: S (MBC:MIC ratio of ≦2:1)
GBS strain A909, listed as Penicillin
  Phenotype: Susceptible
GBS strain NEM316
  Ratio (MBC90:MIC90): 8
  Phenotype: I (4:1-16:1)
GBS strain NEM316, listed as Penicillin
  Phenotype: Intermediate
GBS strain O90R
  Ratio (MBC90:MIC90): 32
  Phenotype: PT (≧32:1)
GBS strain O90R, listed as Penicillin
  Phenotype: Tolerant
[1]
  MBC: 0.06 µg/mL
  MIC: 0.06 µg/mL
Streptococcus, GBS strain A909
  MBC: 0.06 µg/mL
  MIC: 0.06 µg/mL
[2]
  MBC: 0.48 µg/mL
  MIC: 0.06 µg/mL
Streptococcus, GBS strain O90R
  MBC: 3.84 µg/mL
  MIC: 0.12 µg/mL
Streptococcus, for GBS, as stated under culture conditions
  MIC90: 0.06 µg/mL
